The values that follow come from patent US20230357162A1, “COMPOUNDS, COMPOSITIONS AND METHODS” (Denali Therapeutics Inc., priority 2020, published 2023).

Counter-ions that a name gives are not always drawn. Bounds are passed on as bounds.

This test relates to IL-1β secretion, THP-1 cells. Description: IL-1β secretion assay in PMA-differentiated THP-1 cells stimulated with LPS and nigericin (ELISA readout). It is filed as cell-based. Conditions: 25 ng/mL LPS then nigericin. The procedure:
Compounds as provided herein were tested in the following assay. Cell culture medium employed contained RPMI 1640 medium (89%), FBS (10%), Pen/Strep (1%), and 2-mercaptoethanol (0.05 mM). Freezing medium was made up of 90% FBS and 10% DMSO. THP-1 cells were removed from the liquid nitrogen and placed into a 37° C. water bath to thaw, until signs of ice dissipated. The cells were then added to 9 mL of warm cell culture medium and centrifuged for 5 minutes at 1000 rpm. The supernatant was discarded, and the cells were resuspended in new cell culture medium. THP-1 cells were then split and cultured in the cell culture medium, being passaged every 2-3 days with the cell density will be maintained between 5×10^5 and 1.5×10^6 viable cells/mL.
PMA was dissolved in DMSO to make a stock solution at 5 mg/ml and stored in 10 µl aliquots at -20° C. for single use. PMA is added to normal growth medium. LPS was diluted with 1 mL of water solution to provide a 1 mg/mL stock solution and stored in 15 µl aliquots at -20° C. for single use. Nigericin is diluted in ice cold 100% ethanol to 5 mg/ml (6.7 mM) and stored in 75 µL aliquots at -20° C. for single use. Serum-free media contains RPMI 1640 medium (99%), Pen/Strep (1%), and 2-mercaptoethanol (0.05 mM). The two control conditions used to qualify and normalize test compound dose-response curves were as follows: High Control = 25 ng/mL LPS, 5 µM Nigericin, 0.5% DMSO, Low Control = 25 ng/mL, LPS, 0.5% DMSO.
THP-1 cells were diluted to provide a suspension at a concentration of 1.0×10^6 cells/mL with the total volume of suspension required to enable the desired number of assay plates. The growth media was supplemented with PMA (5 ng/mL final concentration) and the cells were incubated at 37° C. under a humidified atmosphere of 5% CO2 for 40 h.
All media was carefully aspirated from each culture flask. The cells were washed carefully with 1x DPBS. The cells were then briefly digested with trypsin LE for 5 minutes at 23° C. and immediately resuspended in cell growth media. After resuspension, the cells were centrifuged at 1000 rpm for 3 minutes and the supernatant was discarded. The cells were resuspended in DPBS and once again centrifuged at 1000 rpm for 5 minutes. The supernatant was discarded and the cell pellet was resuspended in serum-free media supplemented with LPS (25 ng/mL final concentration) to enable the distribution of 30 K THP-1 cells within 45 µL of media into each well of 384-well PDL-coated plates. The 384-well plates were then incubated at 37° C. under a humidified atmosphere of 5% CO2 for 2 h. Following this period, test compounds were dispensed by Tecan across the desired concentration range with all wells normalized to a final 0.5 % DMSO concentration. The plates were then then incubated at 37° C. under a humidified atmosphere of 5% CO2 for 1 h. Following this period, 5 µL of the […] nigericin stock solution was added to each of the appropriate wells and plates were centrifuged at 1000 rpm for 30 seconds. The plates were the immediately reintroduced to the incubator at 37° C. under a humidified atmosphere of 5% CO2 for 2 h. After this time, 35 µL/well of supernatant was collected and transferred into v-bottom plate and centrifuged at 1000 rpm for 1 minute. These supernatant aliquots were analyzed using an IL-Iβ detection kit as described below. If needed, the test samples could be snap frozen and stored at -80° C. until analyzed.
To prepare each ELISA plate, capture antibody (mAb Mt175) was diluted with PBS to a final concentration of 2 µg/mL and then 20 µL of this solution was added to each well of the ELISA plate. Each plate was allowed to incubate overnight at 4° C. The next day, the capture antibody solution was removed and discarded. Each ELISA plate was washed 4 times with PBST followed by the addition of 25 µL/well of blocking buffer (Licor-927-40010) supplemented with 0.1% Tween 20. Each ELISA plate was then allowed to incubate for 1 hour at 23° C. […]
In general terms: ELISA stands for enzyme-linked immunosorbent assay.

Setting [1] is: Homo sapiens, THP-1, inhibition of IL-1β secretion, class column of Table 3.
Where [2] appears, read: Homo sapiens, THP-1, inhibition of IL-1β secretion, numeric column of Table 3.
[3] abbreviates: inhibition of IL-1β secretion, class column of Table 3.
[4] abbreviates: inhibition of IL-1β secretion, numeric column of Table 3.

Regarding `CC(O)c1nn(CC(=O)Nc2ncccn2)c(=O)c2ccc(Br)cc12` (single isomer, unassigned) [Example 101, 2-(6-bromo-4-(1-hydroxyethyl)-1-oxophthalazin-2(1H)-yl)-N-(pyrimidin-2-yl)acetamide], the IC50 is, setting by setting: under setting [1], below 10000 nM; under setting [2], 1450 nM.

As for `CC(O)c1nn(CC(=O)Nc2ncccn2)c(=O)c2ccc(Br)cc12` (single isomer, unassigned) [Example 102, 2-(6-bromo-4-(1-hydroxyethyl)-1-oxophthalazin-2(1H)-yl)-N-(pyrimidin-2-yl)acetamide], the IC50 reads like this: under setting [3], below 10000 nM; under setting [4], 2440 nM.

`O=C(Cn1nc([C@H]2C[C@H]2F)c2cc(Br)ccc2c1=O)Nc1ncc(F)cn1` (single isomer, unassigned) [Example 165, 2-[6-bromo-4-[2-cis-fluorocyclopropyl]-1-oxophthalazin-2-yl]-N-(5-fluoropyrimidin-2-yl)acetamide]: the concentration for half-maximal inhibition (IC50) runs as follows: under setting [1], below 10000 nM; under setting [4], 613 nM.

With `O=C(Cn1nc([C@H]2C[C@H]2F)c2cc(Br)ccc2c1=O)Nc1ncc(F)cn1` (single isomer, unassigned) [Example 166, 2-[6-bromo-4-[2-cis-fluorocyclopropyl]-1-oxophthalazin-2-yl]-N-(5-fluoropyrimidin-2-yl)acetamide], the IC50 reads like this: under setting [3], below 10000 nM; under setting [4], 237 nM.

With `CC(C)c1nn(CC(=O)N[C@H]2C[C@@](C)(O)C2)c(=O)c2ccc(Br)cc12` [Example 1, 2-(6-Bromo-4-isopropyl-1-oxophthalazin-2(1H)-yl)-N-(cis-3-hydroxy-3-methylcyclobutyl)acetamide], the half-inhibitory concentration (IC50) by setting is: under setting [1], below 10000 nM; under setting [2], 30 nM.

The compound `CC(C)c1nn(CC(=O)N[C@H]2C[C@@](C)(O)C2)c(=O)c2cc(Br)ccc12` [Example 2, 2-(7-Bromo-4-isopropyl-1-oxophthalazin-2(1H)-yl)-N-(cis-3-hydroxy-3-methylcyclobutyl)acetamide] came in with an IC50 under setting [1] below 10000 nM and an IC50 under setting [2] of 2110 nM.

As to `CCN1CCC[C@@H](NC(=O)Cn2nc(C(C)C)c3cc(Br)ccc3c2=O)C1` [Example 3, (R)-2-(6-Bromo-4-isopropyl-1-oxophthalazin-2(1H)-yl)-N-(1-ethylpiperidin-3-yl)acetamide], the IC50 was below 10000 nM under setting [1] and 159 nM under setting [2].

Regarding `CCN1CCC[C@@H](NC(=O)Cn2nc(C(C)C)c3cc(C)ccc3c2=O)C1` [Example 4], the half-inhibitory concentration (IC50) is, setting by setting: under setting [1], below 10000 nM; under setting [2], 1830 nM.

On to `CC(C)c1nn(CC(=O)N[C@@H]2CCCN(C3CC3)C2)c(=O)c2ccc(Br)cc12` [Example 5, (R)(6-Bromo-4-Isopropyl-1-Oxophthalazin-2(1H)-yl)-N-(1-Cyclopropylpiperidin-3-yl)Acetamide], for which the half-maximal inhibitory concentration (IC50) under setting [1] was below 10000 nM and half-maximal inhibition under setting [2] (IC50) was put at 46 nM.

With `CC(C)c1nn(CC(=O)Nc2ncncc2F)c(=O)c2ccc(Br)cc12` [Example 6, 2-(6-Bromo-4-isopropyl-1-oxophthalazin-2(1H)-yl)-N-(5-fluoropyrimidin-4-yl)acetamide], the half-inhibitory concentration (IC50) reads like this: under setting [1], below 10000 nM; under setting [2], 121 nM.

In the case of `CC(C)c1nn(CC(=O)N[C@@H]2CCCN(CC(F)(F)F)C2)c(=O)c2ccc(Br)cc12` [Example 7, (R)-2-(6-Bromo-4-isopropyl-1-oxophthalazin-2(1H)-yl)-N-(1-(2,2,2-trifluoroethyl)piperidin-3-yl)acetamide], the IC50 under setting [1] is below 10000 nM and the half-maximal inhibitory concentration (IC50) under setting [2] was found to be 1030 nM.

In the case of `CC(C)c1nn(CC(=O)Nc2ccncc2F)c(=O)c2ccc(Br)cc12` [Example 8, 2-(6-Bromo-4-isopropyl-1-oxophthalazin-2(1H)-yl)-N-(3-fluoropyridin-4-yl)acetamide], the IC50 by setting is: under setting [1], below 10000 nM; under setting [2], 235 nM.

For `CC(C)c1nn(CC(=O)Nc2ncncc2F)c(=O)c2ccc(Br)c(F)c12` [Example 9, 2-(6-Bromo-5-fluoro-4-isopropyl-1-oxophthalazin-2(1H)-yl)-N-(5-fluoropyrimidin-4-yl)acetamide], the 50% inhibitory concentration (IC50) by setting is: under setting [1], below 10000 nM; under setting [2], 144 nM.

With `CC(C)c1nn(CC(=O)NC2CN(C(=O)OC(C)(C)C)CC(F)(F)C2)c(=O)c2ccc(Br)cc12` (stereo not shown) [Example 10, tert-Butyl-5-[[2-(6-bromo-4-isopropyl-1-oxo-phthalazin-2-yl)acetyl]amino]-3,3-difluoro-piperidine-1-carboxylate], the IC50 is below 10000 nM under setting [1] and 3050 nM under setting [2].

For the compound `CC(C)c1nn(CC(=O)NC2CNCC(F)(F)C2)c(=O)c2ccc(Br)cc12` (stereo not shown) [Example 11, 2-(6-bromo-4-isopropyl-1-oxophthalazin-2(lH)-yl)-N-(5,5-difluoropiperidin-3-yl)acetamide HCl salt], the IC50 under setting [1] is below 10000 nM and the midpoint of inhibition under setting [2], the IC50, lay at 3150 nM.

With `CCN1CC(NC(=O)Cn2nc(C(C)C)c3cc(Br)ccc3c2=O)CC(F)(F)C1` (stereo not shown) [Example 12], the IC50 reads like this: under setting [1], below 10000 nM; under setting [2], 2590 nM.

In the case of `CC(F)(F)c1nn(CC(=O)Nc2ncncc2F)c(=O)c2ccc(Br)cc12` [Example 13, 2-[6-bromo-4-(1,1-difluoroethyl)-1-oxophthalazin-2-yl]-N-(5-fluoropyrimidin-4-yl)acetamide], the IC50 under setting [1] is below 10000 nM and the half-maximal inhibitory concentration (IC50) under setting [2] is 2320 nM.

Take `CC(C)c1nn(C(C)C(=O)Nc2ncncc2F)c(=O)c2ccc(Br)cc12` (stereo not shown) [Example 14, 2-(6-bromo-1-oxo-4-propan-2-ylphthalazin-2-yl)-N-(5-fluoropyrimidin-4-yl)propanamide]: the 50% inhibitory concentration (IC50) is below 10000 nM under setting [1] and 3660 nM under setting [2].

Consider `CC(C)c1nn(CC(=O)Nc2ncncc2F)c(=O)c2ccc(OC(F)(F)F)cc12` [Example 15, N-(5-fluoropyrimidin-4-yl)-2-[1-oxo-4-propan-2-yl-6-(trifluoromethoxy)phthalazin-2-yl]acetamide], for which the IC50 under setting [1] is below 10000 nM and the IC50 under setting [2] worked out at 6270 nM.

`CC(C)c1nn(CC(=O)Nc2ncncc2F)c(=O)c2ccc(OC(F)F)cc12` [Example 16, 2-[6-(difluoromethoxy)-1-oxo-4-propan-2-ylphthalazin-2-yl]-N-(5-fluoropyrimidin-4-yl)acetamide] showed a 50% inhibitory concentration (IC50) under setting [1] below 10000 nM and an IC50 under setting [2] of 787 nM.

Take `CC(c1nn(CC(=O)Nc2ncncc2F)c(=O)c2ccc(Br)cc12)C(F)(F)F` (stereo not shown) [Example 17, 2-[6-bromo-1-oxo-4-(1,1,1-trifluoropropan-2-yl)phthalazin-2-yl]-N-(5-fluoropyrimidin-4-yl)acetamide]: the concentration for half-maximal inhibition (IC50) is below 10000 nM under setting [1] and 876 nM under setting [2].

On to `CC(c1ccc2c(=O)n(CC(=O)Nc3ncncc3F)nc(Br)c2c1)C(F)(F)F` (stereo not shown) [Example 18, 2-[4-bromo-1-oxo-6-(1,1,1-trifluoropropan-2-yl)phthalazin-2-yl]-N-(5-fluoropyrimidin-4-yl)acetamide], for which the half-maximal inhibitory concentration (IC50) is, setting by setting: under setting [1], 10000 to 15000 nM; under setting [2], 10700 nM.

On to `CC(C)c1nn(CC(=O)Nc2ncncc2F)c(=O)c2ccc(C3CC3)cc12` [Example 19, 2-(6-cyclopropyl-1-oxo-4-propan-2-ylphthalazin-2-yl)-N-(5-fluoropyrimidin-4-yl)acetamide], for which the IC50 under setting [1] is below 10000 nM and the 50% inhibitory concentration (IC50) under setting [2] came out at 334 nM.

In general, IC50 refers to the concentration that gives 50% inhibition. A low value points to greater potency in that assay.
